# Experimental data taken from the supplement of paper PMC8960247.
# Structures can show the parent of a compound that is named as a salt. ± gives the standard error.
# Columns and labels:
# [1] = test system: 621-102 (TSC2-deficient); assay: relative viability vs DMSO; higher = less cytotoxic; conditions: serum: 10% FBS, 72 h
# [2] = test system: 621-103 (TSC2-rescued); assay: as above; conditions: serum: 10% FBS, 72 h
# 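Note: immortalized renal angiomyolipoma cells stably carrying empty vector or TSC2, dosed in 384-well plates in DMEM, viability normalized to vehicle-treated wells within each plate.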
Structure (SMILES),relative viability ([1]; 0.0001 µM),relative viability ([1]; 0.001 µM),relative viability ([1]; 0.01 µM),relative viability ([1]; 0.1 µM),relative viability ([1]; 1 µM),relative viability ([1]; 10 µM),relative viability ([2]; 0.0001 µM),relative viability ([2]; 0.001 µM),relative viability ([2]; 0.01 µM),relative viability ([2]; 0.1 µM),relative viability ([2]; 1 µM),relative viability ([2]; 10 µM)
CCCCC1=NC2(CCCC2)C(=O)N1Cc1ccc(-c2ccccc2-c2nnn[nH]2)cc1 [Irbesartan (Avapro)],103.3 ± 0.78%,100.8 ± 0.93%,105 ± 3.8%,101 ± 4.9%,110 ± 1.1%,104 ± 2.6%,102 ± 1.3%,96.3 ± 4.2%,95.6 ± 3.6%,102 ± 1.9%,103 ± 4%,107.2 ± 0.91%
COc1c(C)cnc(Cn2cnc3c(Cl)nc(N)nc32)c1C [BIIB021],107 ± 1.3%,120 ± 2.2%,117 ± 4.1%,79 ± 2.7%,33.3 ± 1.2%,21.1 ± 0.83%,108.8 ± 0.79%,103 ± 1.5%,104.1 ± 0.83%,75 ± 2.9%,5.92 ± 0.87%,4.56 ± 0.052%
CN1[C@@H]2CC[C@H]1C[C@@H](OC(=O)c1c[nH]c3ccccc13)C2 [Tropisetron HCl],82.2 ± 3.4%,94 ± 3.9%,99.6 ± 3.9%,106 ± 2%,99.47 ± 0.15%,93.3 ± 1.3%,89.7 ± 3%,96.7 ± 2.6%,102 ± 2.4%,95.48 ± 0.32%,106.6 ± 0.86%,84.7 ± 1.7%
CCN1CCN(C(=O)Cc2ccc(Nc3ncc(F)c(Nc4ccc(C(=O)Nc5ccccc5Cl)cc4)n3)cc2)CC1 [Aurora A Inhibitor I],105.83 ± 0.089%,113 ± 3.6%,114 ± 3.2%,105 ± 2.2%,104 ± 1.4%,0.786 ± 0.16%,101 ± 0.28%,100.7 ± 0.54%,98.55 ± 0.77%,99.54 ± 0.75%,87.1 ± 2.3%,0.915 ± 0.027%
Nc1nc(=O)n([C@@H]2CS[C@H](CO)O2)cc1F [Emtricitabine],92.1 ± 2.5%,90.4 ± 1.3%,95.4 ± 1%,88.7 ± 4.1%,92 ± 9.3%,83.5 ± 6.5%,106 ± 1.1%,110 ± 6.2%,101 ± 4.7%,105 ± 2.6%,100 ± 3.7%,98.4 ± 1.5%
COC(=O)Nc1ccc(-c2nc(N3CCOCC3)c3cnn(C4CCN(C(=O)OC)CC4)c3n2)cc1 [WYE-354],89.9 ± 1.9%,84.2 ± 1.1%,79.5 ± 4.5%,84.3 ± 5.7%,49.3 ± 3.1%,61.2 ± 3.3%,102 ± 1.1%,103.2 ± 0.11%,102 ± 1.2%,105.7 ± 1%,68.1 ± 0.21%,74.5 ± 2.2%
C=CCNC1=C2C[C@@H](C)C[C@H](OC)[C@H](O)[C@@H](C)/C=C(\C)[C@H](OC(N)=O)[C@@H](OC)/C=C\C=C(/C)C(=O)NC(=CC1=O)C2=O [17-AAG (Geldanamycin)],105 ± 1.4%,100.9 ± 0.99%,72.2 ± 2.9%,25.7 ± 0.57%,23.2 ± 0.81%,25.3 ± 0.31%,104.5 ± 0.96%,104 ± 3%,72.4 ± 3.8%,14.3 ± 0.16%,6.05 ± 0.096%,6.31 ± 0.22%
CC(C)Cc1ccc(C(C)C(=O)O)cc1 (stereo not given) [Ibuprofen],102.6 ± 0.15%,109 ± 5.4%,114 ± 1.2%,112.4 ± 0.85%,106 ± 1.3%,104 ± 3.3%,105.8 ± 0.48%,99.2 ± 0.35%,101 ± 0.81%,99.61 ± 0.82%,98.25 ± 0.82%,98.82 ± 0.41%
COc1cc2c(Oc3ccc4[nH]c(C)cc4c3F)ncnc2cc1OCCCN1CCCC1 [Cediranib (AZD2171)],104 ± 3.6%,117 ± 2.7%,121 ± 5.1%,102 ± 2.1%,84.2 ± 1.6%,10.6 ± 4.9%,81.9 ± 2.5%,89.4 ± 1.5%,102 ± 1.9%,97.36 ± 0.37%,62.3 ± 2.6%,1.75 ± 0.065%
NC12CC3CC(CC(C3)C1)C2 [Amantadine HCl (Symmetrel)],97.2 ± 2.8%,96.9 ± 4.5%,94.9 ± 3.8%,98.5 ± 3.3%,100.9 ± 0.5%,98.09 ± 0.17%,92.2 ± 5.4%,98.7 ± 2.9%,106 ± 2.3%,111 ± 3.6%,108 ± 1.8%,96.89 ± 0.4%
COc1cc(Nc2ncc(F)c(Nc3ccc4c(n3)NC(=O)C(C)(C)O4)n2)cc(OC)c1OC [R406],117 ± 2%,110 ± 2.2%,111 ± 1.2%,109 ± 0.81%,100.2 ± 0.76%,117.2 ± 1.1%,101 ± 1.9%,100 ± 1.5%,98.7 ± 1.4%,99.27 ± 0.46%,99.6 ± 1.3%,89.7 ± 2.5%
Cc1ncc(-c2ccnc(Nc3ccc(S(C)(=O)=O)cc3)n2)n1C(C)C [AZD5438],103 ± 7.6%,101 ± 1.4%,95.4 ± 1.6%,99.55 ± 0.14%,88.1 ± 1.8%,11.69 ± 0.054%,110.9 ± 0.22%,105.8 ± 0.22%,98.7 ± 4.7%,108 ± 1.6%,89.4 ± 2.3%,27.7 ± 0.92%
CN(C)C/C=C/C(=O)Nc1cc2c(Nc3ccc(F)c(Cl)c3)ncnc2cc1O[C@H]1CCOC1 [BIBW2992 )Tovok)],115 ± 3%,108.3 ± 0.98%,110 ± 1.6%,108 ± 3.2%,91.85 ± 0.61%,13.8 ± 1.6%,98.7 ± 5.2%,106.2 ± 1%,103 ± 6%,100.3 ± 0.78%,78.3 ± 2.9%,7.915 ± 0.042%
CCOC(=O)C1=C(C)NC(C)=C(C(=O)OC)C1c1cccc(Cl)c1Cl (stereo not given) [Felodipine],103 ± 2.2%,97.3 ± 5.4%,101 ± 4.7%,103 ± 1.5%,106 ± 1.6%,117 ± 4.6%,104.4 ± 0.74%,100.1 ± 0.68%,104 ± 3.1%,98.2 ± 1.4%,100 ± 1.6%,106 ± 2.3%
CCCCCCCCCCCCCCCC(=O)OC[C@H](O)[C@H]1OC(=O)C(O)=C1O [L-Ascorbyl 6-palmitate],122 ± 5.9%,111 ± 2.5%,107 ± 3.4%,107 ± 1.8%,106.5 ± 0.81%,111 ± 2.4%,99.8 ± 2.5%,105.8 ± 0.61%,96.5 ± 3.2%,100 ± 2.4%,97.4 ± 2.1%,94.9 ± 5%
CN(C)Cc1cccc(N=C(c2ccccc2)c2c(O)[nH]c3cc(C(=O)N(C)C)ccc23)c1,107 ± 1.5%,106 ± 1.2%,102 ± 1.4%,100.76 ± 0.028%,98.5 ± 6.6%,93.3 ± 1.4%,98.05 ± 0.44%,99.6 ± 1.7%,98.8 ± 1.2%,99.48 ± 0.73%,91.7 ± 5.7%,47.4 ± 2.2%
Cc1cc2c(s1)Nc1ccccc1N=C2N1CCN(C)CC1 [Olanzapine (Zyprexa)],108 ± 1.3%,105 ± 3.1%,110 ± 2.6%,115 ± 5.1%,108 ± 1.7%,105 ± 4.6%,103 ± 3%,100.7 ± 0.71%,102 ± 4%,104.8 ± 1%,96.8 ± 2.5%,95.1 ± 1.2%
Oc1ncnc2[nH]ncc12 [Allopurinol],96.2 ± 0.32%,105 ± 2.6%,102 ± 1.7%,91.9 ± 0.92%,99.48 ± 0.58%,101.9 ± 0.86%,103 ± 3.1%,98.4 ± 1.6%,101 ± 3.5%,98.7 ± 3.6%,98.2 ± 1.6%,100 ± 1.9%
CC(NC(C)(C)C)C(=O)c1cccc(Cl)c1 (stereo not given) [Amfebutamone],110 ± 2.9%,103 ± 1.4%,104.4 ± 0.4%,112 ± 2.4%,103 ± 2.4%,103 ± 3.5%,103.2 ± 0.3%,105 ± 2.2%,98.8 ± 1.9%,101 ± 2.8%,102 ± 2.8%,102 ± 1.2%
CCC(C)n1ncn(-c2ccc(N3CCN(c4ccc(OCC5COC(Cn6cncn6)(c6ccc(Cl)cc6Cl)O5)cc4)CC3)cc2)c1=O (stereo not given) [Itraconazole (Sporanox)],108 ± 2.3%,115 ± 3.1%,102 ± 1.8%,112 ± 3.4%,60 ± 7.2%,7.53 ± 0.32%,98.8 ± 5.2%,86.8 ± 1.1%,95.59 ± 0.8%,97.5 ± 6.4%,70.71 ± 0.48%,15.44 ± 0.12%
